Measurements: patent US9173869B2, “Mediators of hedgehog signaling pathways, compositions and uses related thereto” (CURIS, INC., priority 1999, dated 2015)

Legend:
[1] = system: Hedgehog pathway (Shh-induced Gli-transcription activity) in 10T1/2(s12) cells; experiment: Gli-Luc assay (high-throughput screening, Hedgehog-responsive luciferase reporter); assay type: cell-based; settings: Gli-Luc response, OCT-SHH 0.3 μg/ml, about 24 h
Description: Compounds to be tested are dissolved in DMSO to a concentration of 10 mM, and stored at −20° C. To activate the Hedgehog pathway in the assay cells, an octylated (lipid-modified) form of the N-terminal fragment of the Sonic Hedgehog protein (OCT-SHH) is used. This N-terminal SHH fragment is produced bacterially. The octylation involves reaction of the N-terminal fragment, via its amino-terminal cysteine moiety, with octyl maleimide.
Compounds may be tested in the “Gli-Luc” assay below, using the cell line 10T(s12), wherein the cells contain a Hedgehog-responsive reporter construct utilizing Luciferase as the reporter gene. In this way, Hedgehog pathway signaling activity can be measured via the Gli-Luc response.
10t1/2(s12) cells are plated in a 96-well micro-titer plate (MTP) at 20,000 cells/well in full medium [DMEM with 10% FBS]. Then plates are placed in the incubator for incubation overnight (O/N), at 37° C. and 5% CO2. After 24 h, the medium is replaced with Luciferase-assay medium (DMEM with 0.5% FBS). Compounds are thawed and diluted in assay medium at 3:1000 (about 300-fold) resulting in a starting concentration of about 30 μM.
Subsequently, 150 μl of each 30 μM sample is added to the first wells (in triplicate). The MTP samples are then diluted at 3-fold dilutions to a total of seven wells, ultimately resulting in a regiment of seven dilutions in triplicate, for each compound. Next, the protein ligand OCT-SHH is diluted in Luciferase-assay medium and added to each well at a final concentration of 0.3 μg/ml. Plates are then returned to the incubator for further incubation O/N, at 37° C. and 5% CO2. After about 24 h, plates are removed from the incubator and the medium is aspirated/discarded. Wells are washed once with assay buffer [PBS+1 mM Mg^2+ and 1 mM Ca^2+]. Then 50 μl of assay buffer is added to each well. The Luciferase assay reagent is prepared as described by the vendor (LucLite kit from Packard), and 50 μl is added to each well. Plates are incubated at room temperature (RT) for about 30 minutes after which the signals are read, again at RT, on a Topcount (Packard).

[2] = system: gli-1 mRNA in ptc-null cells; experiment: Ptc-null assay (RT-PCR / quantitative real-time PCR of gli-1 mRNA); assay type: cell-based, mouse; settings: ptc-null cells cultured 3 days, compared with vehicle; for expression of gli-1: 1 μM of test compound
Description: Ptc-null cells were cultured for 3 days in the presence of vehicle; jervine, a known Patched pathway antagonist (i) used here as a positive control; or 1 μM of a test compound. Total ribonucleic acid (RNA) was isolated from the cells and used for reverse transcriptase-polymerase chain reaction (RT-PCR). […] The gli-1 and actin mRNA samples were then loaded on 1.5% agarose gel and were detected by staining with ethidium bromide. The same samples were analyzed by the quantitative real-time polymerase chain reaction method to quantify the levels of gli-1 mRNA.

[3] = system: ptc-1 lacZ reporter gene expression in lung explants; experiment: E12.5 ptc-1 (d11) lacZ lung explant culture, lacZ staining; assay type: cell-based, mouse; settings: lung explants grown 48 hrs, versus untreated control
Description: In yet another experiment, E12.5 old ptc-1 (d11) lacZ lungs were harvested and transgenic embryos identified by lacZ detection using tails. Lung explants were grown submerged in mouse explant medium (DMEM based, additives optimized for the culture of mouse lungs) for 48 hrs, fixed in lacZ fixative, rinsed and stained for lacZ O/N at 37° C. Control tissue was untreated, while test tissue was treated with 11. Results are depicted in FIG. 34: (A) Untreated control. Strong lacZ expression can be observed in distal and proximal mesenchyme.

murine BCC lesions = experiment: Cultured skin punches with BCC lesions from UV-irradiated Ptc-knockout heterozygote mouse (X-gal staining); assay type: cell-based
Description: Mouse 456 is a Ptc-knockout heterozygote that received UV irradiation for 6 months. The mouse developed many small BCC lesions, which were blue after X-gal staining. The mouse was sacrificed and the skin was excised with a 2 mm skin punch. Those skin punches were then cultured for 6 days. […] The effect was more obvious when 10 μM of 11 was added to the culture medium instead of 5 μM of 11.

Row | IC50 [1] [µM] | SMILES | other results
1 | < 0.1 | O=C(NCc1nc2ccccc2c(=O)n1-c1ccc(F)cc1)Nc1ccc(Cl)c(C(F)(F)F)c1 [Compound 5, 1-(4-Chloro-3-trifluoromethyl-phenyl)-3-[3-(4-fluoro-phenyl)-4-oxo-3,4-dihydro-quinazolin-2-ylmethyl]-urea] | 
2 | < 0.5 | O=C(NCc1nc2ccccc2c(=O)n1-c1ccc(F)cc1)Nc1cc(Cl)nc(Cl)c1 [Compound 6, 1-(2,6-Dichloro-pyridin-4-yl)-3-[3-(4-fluoro-phenyl)-4-oxo-3,4-dihydro-quinazolin-2-ylmethyl]-urea] | 
3 | < 5 | CC(c1nc2ccccc2c(=O)n1-c1ccc(F)cc1)N(C)C(=O)Nc1cccc(C(F)(F)F)c1 (stereo not drawn) [Compound 11, 2-{1′-[N-(3″-trifluoromethylphenylcarbamoyl)-N-methyl-amino]ethyl}-3-(4′″fluorophenyl)-quinazolin-4-one] | expression of gli-1 [2]: no significant decrease; lacZ reporter gene expression [3]: significantly decreased reporter gene expression; effect on BCC lesions at 10 μM instead of 5 μM (murine BCC lesions; 10 μM versus 5 μM in culture medium, 6 days): more obvious; number and size of BCC lesions (blue spots) (murine BCC lesions; skin punches of mouse 456 cultured for 6 days, compared to vehicle (DMSO), 5 or 10 μM): can decrease the number and size of BCC lesions
4 | < 10 | CC(c1nc2ccccc2c(=O)n1-c1ccc(F)cc1)N(Cc1ccco1)C(=O)Nc1cccc(F)c1 (stereo not drawn) [Compound 31] | 
5 | < 5 | CC(c1nc2ccccc2c(=O)n1-c1ccc(F)cc1)N(C)C(=O)Nc1ccc([N+](=O)[O-])c(C(F)(F)F)c1 (stereo not drawn) [Compound 32] | 
6 | < 5 | CCCN(C(=O)Nc1cccc(Cl)c1)C(C)c1nc2ccccc2c(=O)n1-c1ccc(F)cc1 (stereo not drawn) [Compound 34] | 
7 | < 5 | CCCN(C(=O)Nc1cccc(C(F)(F)F)c1)C(C)c1nc2ccccc2c(=O)n1-c1ccc(F)cc1 (stereo not drawn) [Compound 36] | 
8 | < 5 | CCCN(C(=O)Nc1cccc(OC)c1)C(C)c1nc2ccccc2c(=O)n1-c1ccc(F)cc1 (stereo not drawn) [Compound 38] | 
9 | < 5 | CCC(c1nc2ccccc2c(=O)n1-c1ccc(C)cc1)N(CCc1ccccc1)C(=O)CCCCF (stereo not drawn) [Compound 39] | 
10 | < 10 | CCCCc1ccc(C(=O)N(Cc2ccccc2)C(CC)c2nc3ccccc3c(=O)n2-c2ccc(C)cc2)cc1 (stereo not drawn) [Compound 40] | 
11 | < 10 | CCCCCCCCC(=O)N(CCCCC)C(C)c1nc2ccccc2c(=O)n1-c1ccccc1 (stereo not drawn) [Compound 41] | 
12 | < 5 | CCC(=O)N1CCN(C(CC)c2nc3ccccc3c(=O)n2-c2ccc(C)cc2)C(C)C1 (stereo not drawn) [Compound 42] | 
13 | < 10 | CC(c1nc2ccccc2c(=O)n1-c1ccc(F)cc1)N1CCN(C(=O)Nc2ccc(Cl)c(Cl)c2)CC1 (stereo not drawn) [Compound 43] | 
14 | < 1 | O=C(NCc1nc2ccccc2c(=O)n1-c1ccc(F)cc1)Nc1cccc(C(F)(F)F)c1 [Compound 44] | 
15 | < 5 | CCC(c1nc2ccccc2c(=O)[nH]1)N1CCN(C(=O)Nc2ccc(Cl)c(Cl)c2)C(C)C1 (stereo not drawn) [Compound 45] | 
16 | < 0.5 | CCC(c1nc2ccccc2c(=O)[nH]1)N1CCN(C(=O)c2ccc(-c3ccccc3)cc2)C(C)C1 (stereo not drawn) [Compound 46] | 
17 | < 5 | CCCN(CCC(=O)NC1CCCc2ccccc21)C(=O)c1cc(OC)cc(OC)c1 (stereo not drawn) [Compound 47] | expression of gli-1 [2]: no significant decrease
18 | < 0.5 | CCC(C)N(CCC(=O)NC1CCCc2ccccc21)C(=O)c1cccc2ccccc12 (stereo not drawn) [Compound 48] | expression of gli-1 [2]: no significant decrease
19 | < 1 | CCC(C)N(CCC(=O)NC1CCCc2ccccc21)C(=O)COc1ccc(Cl)cc1 (stereo not drawn) [Compound 49] | expression of gli-1 [2]: no significant decrease
20 | < 1 | O=C(Cc1cccc(C(F)(F)F)c1)NCCc1nc2ccccc2c(=O)n1-c1ccc(F)cc1 [Compound 50] | 
21 | < 5 | CC(c1nc2ccccc2c(=O)n1-c1ccc(F)cc1)N(C)C(=O)Nc1cccc(C#N)c1 (stereo not drawn) [Compound 51] | 

Row | IC50 [1] [µM] | SMILES | other results
22 | < 1 | CC(c1nc2ccccc2c(=O)n1-c1ccc(F)cc1)N(C)C(=O)Nc1cccc(SC(F)(F)F)c1 (stereo not drawn) [Compound 52] | 
23 | < 1 | CC(c1nc2ccccc2c(=O)n1-c1ccc(F)cc1)N(C)C(=O)Nc1ccc(Cl)c(Cl)c1 (stereo not drawn) [Compound 53] | 
24 | < 5 | CC(c1nc2ccccc2c(=O)n1-c1ccc(F)cc1)N(C)C(=O)Nc1ccc(C(F)(F)F)cc1 (stereo not drawn) [Compound 54] | 
25 | < 5 | CC(c1nc2ccccc2c(=O)n1-c1ccc(F)cc1)N(C)C(=O)Nc1cccc(F)c1 (stereo not drawn) [Compound 55] | 
26 | < 10 | CC(c1nc2ccccc2c(=O)n1-c1ccc(F)cc1)N(C)C(=O)Nc1ccc(-c2ccccc2)cc1 (stereo not drawn) [Compound 56] | 
27 | < 10 | CC(C)c1cccc(NC(=O)N(C)C(C)c2nc3ccccc3c(=O)n2-c2ccc(F)cc2)c1 (stereo not drawn) [Compound 57] | 
28 | < 5 | CC(c1nc2ccccc2c(=O)n1-c1ccc(F)cc1)N(C)C(=O)Nc1cc(Cl)nc(Cl)c1 (stereo not drawn) [Compound 58] | 
29 | < 5 | Cc1c(NC(=O)N(C)C(C)c2nc3ccccc3c(=O)n2-c2ccc(F)cc2)cccc1[N+](=O)[O-] (stereo not drawn) [Compound 59] | 
30 | < 5 | CC(c1nc2ccccc2c(=O)n1-c1ccc(F)cc1)N(C)C(=O)Nc1ccc(SC(F)(F)F)cc1 (stereo not drawn) [Compound 60] | 
31 | < 1 | CC(c1nc2ccccc2c(=O)n1-c1ccc(F)cc1)N(C)C(=O)Nc1ccc(Cl)c(C(F)(F)F)c1 (stereo not drawn) [Compound 61] | 
32 | < 10 | CCOC(=O)c1ccccc1NC(=O)N(C)C(C)c1nc2ccccc2c(=O)n1-c1ccc(F)cc1 (stereo not drawn) [Compound 63] | 
33 | < 10 | CC(c1nc2ccccc2c(=O)n1-c1ccc(F)cc1)N(C)C(=O)Nc1ccc([N+](=O)[O-])cc1Cl (stereo not drawn) [Compound 64] | 
34 | < 10 | CC(c1nc2ccccc2c(=O)n1-c1ccc(F)cc1)N(C)C(=O)Nc1ccc(Cl)cc1[N+](=O)[O-] (stereo not drawn) [Compound 66] | 
35 | < 5 | Cc1c(NC(=O)NCc2nc3ccccc3c(=O)n2-c2ccc(F)cc2)cccc1SC(F)(F)F [Compound 67] | 
36 | < 1 | O=C(NCc1nc2ccccc2c(=O)n1-c1ccc(F)cc1)Nc1ccc(Cl)c(Cl)c1 [Compound 68] | 
37 | < 0.5 | O=C(NCc1nc2ccccc2c(=O)n1-c1ccc(F)cc1)Nc1ccc(Cl)c([N+](=O)[O-])c1 [Compound 69] | 
38 | < 10 | COc1cccc(NC(=O)NCc2nc3ccccc3c(=O)n2-c2ccc(F)cc2)c1C [Compound 71] | 
39 | < 5 | CC(NC(=O)Nc1cccc(C(F)(F)F)c1)c1nc2ccccc2c(=O)n1-c1ccc(F)cc1 (stereo not drawn) [Compound 73] | 
40 | < 5 | O=C(NCCCc1nc2ccccc2c(=O)n1-c1ccc(F)cc1)Nc1cccc(C(F)(F)F)c1 [Compound 74] | 
41 | < 5 | O=C(Nc1cccc(C(F)(F)F)c1)NC(c1nc2ccccc2c(=O)n1-c1ccc(F)cc1)C1CC1 (stereo not drawn) [Compound 75] | 
42 |  | CC1=C2C(=O)[C@H]3[C@@H](CC=C4C[C@@H](O)CC[C@@]43C)[C@@H]2CC[C@]12O[C@@H]1C[C@H](C)CN[C@H]1[C@H]2C [jervine, reference compound] | expression of gli-1 mRNA ([2]; positive control): significantly decreased

Row | SMILES | IC50 [1] [µM] | other results
43 | CC(c1nc2ccccc2c(=O)n1-c1ccc(F)cc1)N(C)C(=O)Nc1ccc([N+](=O)[O-])c(Cl)c1 (stereo not drawn) [Compound 62] | < 1 | 
44 | CCOOC(=O)c1cccc(NC(=O)N(C)C(C)c2nc3ccccc3c(=O)n2-c2ccc(F)cc2)c1 (stereo not drawn) [Compound 65] | < 10 | 
